Reference: patent US20090016990A1, “Antimicrobial Compositions” (priority 2007, published 2009)

Tests used:
[1] = system: Pseudomonas aeruginosa ATCC 27853; assay: MBEC assay, biofilm inhibition (prevention of biofilm formation), MBEC bioFILM PA panel; type: cell-based; design: MBEC-Biofilm Inhibition, Without compound 9 / MBEC-Biofilm Inhibition, Without compound 6 / MBEC-Biofilm Inhibition, Without compound 2 / MBEC-Biofilm Inhibition, Without compound 7 / MBEC-Biofilm Inhibition, With 0.01% compound 7 in 5% EtOH/PBS / MBEC-Biofilm Inhibition, without salt of compound 2 / MBEC-Biofilm Inhibition, with 0.1% salt of compound 2 / MBEC-Biofilm Inhibition, without salt of compound 6: unit not given here; settings: for MBEC-Biofilm Inhibition, without salt of compound 2 / MBEC-Biofilm Inhibition, with 0.1% salt of compound 2: Table 9; for MBEC-Biofilm Inhibition, without salt of compound 2 / MBEC-Biofilm Inhibition, without salt of compound 6: antibiotic or antibiotic combination alone; for MBEC-Biofilm Inhibition, without salt of compound 2 / MBEC-Biofilm Inhibition, with 0.1% salt of compound 2 / MBEC-Biofilm Inhibition, without salt of compound 6 / MBEC-Biofilm Inhibition, with 0.1% salt of compound 6: value per component; for MBEC-Biofilm Inhibition, without salt of compound 2: separated by /; for MBEC-Biofilm Inhibition, with 0.1% salt of compound 2: antibiotic or combination plus 0.1% salt of compound 2; for MBEC-Biofilm Inhibition, without salt of compound 6 / MBEC-Biofilm Inhibition, with 0.1% salt of compound 6: Table 10; for MBEC-Biofilm Inhibition, with 0.1% salt of compound 6: antibiotic or combination plus 0.1% salt of compound 6; for MBEC-Biofilm Inhibition, Without compound 1 / MBEC-Biofilm Inhibition, Without compound 2 / MBEC-Biofilm Inhibition, Without compound 3 / MBEC-Biofilm Inhibition, Without compound 6 / MBEC-Biofilm Inhibition, Without compound 7 / MBEC-Biofilm Inhibition, Without compound 9: antibiotic alone
[2] = system: Pseudomonas aeruginosa ATCC 27853; assay: MBEC assay, biofilm elimination, MBEC bioFILM PA panel; type: cell-based; design: MBEC-Biofilm Elimination, Without compound 2 / MBEC-Biofilm Elimination, With 0.01% compound 2 in 5% EtOH/PBS / MBEC-Biofilm Elimination, Without compound 7 / MBEC-Biofilm Elimination, With 0.01% compound 7 in 5% EtOH/PBS / MBEC-Biofilm Elimination, Without compound 1 / MBEC-Biofilm Elimination, With 0.01% compound 1 in 5% EtOH/PBS / MBEC-Biofilm Elimination, without salt of compound 2 / MBEC-Biofilm Elimination, with 0.1% salt of compound 2: unit not given here; settings: for MBEC-Biofilm Elimination, without salt of compound 2 / MBEC-Biofilm Elimination, with 0.1% salt of compound 2: Table 9; for MBEC-Biofilm Elimination, without salt of compound 2 / MBEC-Biofilm Elimination, without salt of compound 6: antibiotic or antibiotic combination alone; for MBEC-Biofilm Elimination, without salt of compound 2 / MBEC-Biofilm Elimination, with 0.1% salt of compound 2 / MBEC-Biofilm Elimination, without salt of compound 6 / MBEC-Biofilm Elimination, with 0.1% salt of compound 6: value per component; for MBEC-Biofilm Elimination, with 0.1% salt of compound 2: antibiotic or combination plus 0.1% salt of compound 2; for MBEC-Biofilm Elimination, without salt of compound 6 / MBEC-Biofilm Elimination, with 0.1% salt of compound 6: Table 10; for MBEC-Biofilm Elimination, with 0.1% salt of compound 6: antibiotic or combination plus 0.1% salt of compound 6; for MBEC-Biofilm Elimination, Without compound 1 / MBEC-Biofilm Elimination, Without compound 2 / MBEC-Biofilm Elimination, Without compound 3 / MBEC-Biofilm Elimination, Without compound 6 / MBEC-Biofilm Elimination, Without compound 7 / MBEC-Biofilm Elimination, Without compound 9: antibiotic alone
[3] = with 0.01% compound 1 in 5% EtOH/PBS

Row | Molecule | MBEC-Biofilm Inhibition, without salt of compound 2 [1] | MBEC-Biofilm Inhibition, with 0.1% salt of compound 2 [1] | MBEC-Biofilm Inhibition, without salt of compound 6 [1] | MBEC-Biofilm Inhibition, with 0.1% salt of compound 6 [1] | MBEC-Biofilm Inhibition, Without compound 1 [1] | MBEC-Biofilm Inhibition, Without compound 2 [1] | MBEC-Biofilm Inhibition, Without compound 3 [1] | MBEC-Biofilm Inhibition, Without compound 6 [1] | MBEC-Biofilm Inhibition, Without compound 7 [1] | MBEC-Biofilm Inhibition, Without compound 9 [1] | MBEC-Biofilm Inhibition, With 0.01% compound 1 in 5% EtOH/PBS [1, 3] | MBEC-Biofilm Inhibition, With 0.01% compound 2 in 5% EtOH/PBS [1] | MBEC-Biofilm Inhibition, With 0.01% compound 7 in 5% EtOH/PBS [1] | MBEC-Biofilm Inhibition, With 0.05% compound 3 in 5% EtOH/PBS [1] | MBEC-Biofilm Inhibition, With 0.05% compound 6 in 5% EtOH/PBS [1] | MBEC-Biofilm Elimination, without salt of compound 2 [2] | MBEC-Biofilm Elimination, with 0.1% salt of compound 2 [2] | MBEC-Biofilm Elimination, without salt of compound 6 [2] | MBEC-Biofilm Elimination, with 0.1% salt of compound 6 [2] | MBEC-Biofilm Elimination, Without compound 1 [2] | also measured
1 | CO/N=C(\C(=O)N[C@@H]1C(=O)N2C(C(=O)[O-])=C(C[N+]3(C)CCCC3)CS[C@H]12)c1csc(N)n1 [CPE, cefepime] | >4 | >4 | >4 | >4 | >4 | >4 | >4 | >4 | >4 | >4 | >4 | >4 | >4 | >4 | >4 | >4 | >4 | >4 | >4 | >4 | MBEC-Biofilm Elimination, Without compound 2 [2]: >4; MBEC-Biofilm Elimination, Without compound 3 [2]: >4; MBEC-Biofilm Elimination, Without compound 6 [2]: >4; MBEC-Biofilm Elimination, Without compound 7 [2]: >4; MBEC-Biofilm Elimination, Without compound 9 [2]: >4; MBEC-Biofilm Elimination, With 0.01% compound 1 in 5% EtOH/PBS [2]: >4; MBEC-Biofilm Elimination, With 0.01% compound 2 in 5% EtOH/PBS [2]: >4; MBEC-Biofilm Elimination, With 0.01% compound 7 in 5% EtOH/PBS [2]: >4; MBEC-Biofilm Elimination, With 0.05% compound 3 in 5% EtOH/PBS [2]: >4; MBEC-Biofilm Elimination, With 0.05% compound 6 in 5% EtOH/PBS [2]: >4
2 | C[C@@H](O)[C@H]1C(=O)N2C(C(=O)O)=C(S[C@@H]3CN[C@H](C(=O)N(C)C)C3)[C@H](C)[C@H]12 [MER, meropenem] | >2 | >2 | >2 | >2 | >2 | >2 | >2 | >2 | >2 | >2 | >2 | >2 | >2 | >2 | >2 | >1 | >1 | >1 | >1 | >1 | MBEC-Biofilm Inhibition, With 0.1% w/v compound 9 in PBS [1]: >2; MBEC-Biofilm Elimination, Without compound 2 [2]: >1; MBEC-Biofilm Elimination, Without compound 3 [2]: >1; MBEC-Biofilm Elimination, Without compound 6 [2]: >1; MBEC-Biofilm Elimination, Without compound 7 [2]: >1; MBEC-Biofilm Elimination, Without compound 9 [2]: >1; MBEC-Biofilm Elimination, With 0.01% compound 1 in 5% EtOH/PBS [2]: >1; MBEC-Biofilm Elimination, With 0.01% compound 2 in 5% EtOH/PBS [2]: >1; MBEC-Biofilm Elimination, With 0.01% compound 7 in 5% EtOH/PBS [2]: >1; MBEC-Biofilm Elimination, With 0.05% compound 3 in 5% EtOH/PBS [2]: 1; MBEC-Biofilm Elimination, With 0.05% compound 6 in 5% EtOH/PBS [2]: >1; MBEC-Biofilm Elimination, With 0.1% w/v compound 9 in PBS [2]: >1
3 | NC[C@H]1O[C@H](O[C@H]2[C@H](O)[C@@H](O[C@H]3O[C@H](CO)[C@@H](O)[C@H](N)[C@H]3O)[C@H](N)C[C@@H]2N)[C@H](N)C[C@@H]1O [TO, tobramycin] | >2 | >2 | >2 | >2 | >2 | >2 | >2 | >2 | >2 | 2 | 0.5-2 | >2 | >2 | >2 | >2 | >2 | >2 | >2 | >2 | >2 | MBEC ([1]; antibiotic or combination alone, concentrations in order of the combination): >2 µg/mL; MBEC, μg/mL +Compound 1 ([1]; antibiotic plus Compound 1): 0.5 to 2 µg/mL; MBEC, μg/mL +Compound 2 ([1]; antibiotic plus Compound 2): >2 µg/mL; MBEC, μg/mL +Compound 7 ([1]; antibiotic plus Compound 7): >2 µg/mL; (% reduction) +Compound 1 ([1]; reduction of antibiotic or combination required to prevent biofilm formation): > 50%; value in parentheses after MBEC-Biofilm Inhibition with 0.01% compound 1 (% reduction as in Table 2) [1, 3]: ≥ 50; MBEC-Biofilm Inhibition, With 0.1% w/v compound 9 in PBS [1]: >2; MBEC-Biofilm Elimination, Without compound 2 [2]: >2; MBEC-Biofilm Elimination, Without compound 3 [2]: >2; MBEC-Biofilm Elimination, Without compound 6 [2]: >2; MBEC-Biofilm Elimination, Without compound 7 [2]: >2; MBEC-Biofilm Elimination, Without compound 9 [2]: >2; MBEC-Biofilm Elimination, With 0.01% compound 1 in 5% EtOH/PBS [2]: >2; MBEC-Biofilm Elimination, With 0.01% compound 2 in 5% EtOH/PBS [2]: 1; MBEC-Biofilm Elimination, With 0.01% compound 7 in 5% EtOH/PBS [2]: 0.5; MBEC-Biofilm Elimination, With 0.05% compound 3 in 5% EtOH/PBS [2]: >2; MBEC-Biofilm Elimination, With 0.05% compound 6 in 5% EtOH/PBS [2]: >2; MBEC-Biofilm Elimination, With 0.1% w/v compound 9 in PBS [2]: >2
4 | colistin [CT] | >1 | >1 | >1 | >1 | >1 | >1 | >1 | >1 | >1 | >1 | >1 | >1 | >1 | >1 | >1 | >1 | >1 | >1 | >1 | >1 | MBEC-Biofilm Inhibition, With 0.1% w/v compound 9 in PBS [1]: >1; MBEC-Biofilm Elimination, Without compound 2 [2]: >1; MBEC-Biofilm Elimination, Without compound 3 [2]: >1; MBEC-Biofilm Elimination, Without compound 6 [2]: >1; MBEC-Biofilm Elimination, Without compound 7 [2]: >1; MBEC-Biofilm Elimination, Without compound 9 [2]: >1; MBEC-Biofilm Elimination, With 0.01% compound 1 in 5% EtOH/PBS [2]: 1; MBEC-Biofilm Elimination, With 0.01% compound 2 in 5% EtOH/PBS [2]: 0.5; MBEC-Biofilm Elimination, With 0.01% compound 7 in 5% EtOH/PBS [2]: 1; MBEC-Biofilm Elimination, With 0.05% compound 3 in 5% EtOH/PBS [2]: >1; MBEC-Biofilm Elimination, With 0.05% compound 6 in 5% EtOH/PBS [2]: >1; MBEC-Biofilm Elimination, With 0.1% w/v compound 9 in PBS [2]: >1
5 | gentamicin [GM] | >2 | >2 | >2 | >2 | >2 | >2 | >2 | >2 | >2 | >2 | >2 | >2 | >2 | >2 | >2 | >2 | >2 | >2 | >2 | >2 | MBEC-Biofilm Inhibition, With 0.1% w/v compound 9 in PBS [1]: >2; MBEC-Biofilm Elimination, Without compound 2 [2]: >2; MBEC-Biofilm Elimination, Without compound 3 [2]: >2; MBEC-Biofilm Elimination, Without compound 6 [2]: >2; MBEC-Biofilm Elimination, Without compound 7 [2]: >2; MBEC-Biofilm Elimination, Without compound 9 [2]: 2; MBEC-Biofilm Elimination, With 0.01% compound 1 in 5% EtOH/PBS [2]: 2; MBEC-Biofilm Elimination, With 0.01% compound 2 in 5% EtOH/PBS [2]: >2; MBEC-Biofilm Elimination, With 0.01% compound 7 in 5% EtOH/PBS [2]: 2; MBEC-Biofilm Elimination, With 0.05% compound 3 in 5% EtOH/PBS [2]: >2; MBEC-Biofilm Elimination, With 0.05% compound 6 in 5% EtOH/PBS [2]: >2; MBEC-Biofilm Elimination, With 0.1% w/v compound 9 in PBS [2]: >2
